Data reported in ChEMBL document CHEMBL4020781, “Discovery of potent and orally active 1,4-disubstituted indazoles as novel allosteric glucokinase activators” (Bioorg Med Chem Lett, 2017).
Calls of active or inactive are those of the source. No cut-off for these calls is given here.

Key:
[1] = molecular target: T1, Hexokinase-4 (Homo sapiens, UniProt P35557); assay: Activation of full length human C-terminal FLAG-tagged glucokinase (12 to 465 residues) expressed in Escherichia coli DH10b using glucose as substrate after 60 mins in presence of ATP by kinase-glo luminescence assay
T1 sequence (P35557 whole entry): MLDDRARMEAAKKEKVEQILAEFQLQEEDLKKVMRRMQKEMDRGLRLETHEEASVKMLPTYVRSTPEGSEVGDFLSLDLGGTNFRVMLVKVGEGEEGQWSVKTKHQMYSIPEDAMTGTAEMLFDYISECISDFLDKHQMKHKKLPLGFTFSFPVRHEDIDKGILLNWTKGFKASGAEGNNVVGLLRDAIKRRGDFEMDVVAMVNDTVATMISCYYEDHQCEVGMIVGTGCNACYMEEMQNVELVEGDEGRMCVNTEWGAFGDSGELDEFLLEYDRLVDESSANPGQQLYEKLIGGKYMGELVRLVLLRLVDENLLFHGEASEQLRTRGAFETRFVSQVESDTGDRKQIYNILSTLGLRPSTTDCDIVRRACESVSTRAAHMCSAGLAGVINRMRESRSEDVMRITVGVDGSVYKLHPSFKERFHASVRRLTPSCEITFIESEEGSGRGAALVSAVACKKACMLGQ

[2] = molecular target: T2, Hexokinase-4 (Homo sapiens) (UniProt P35557); assay: Activation of full length human C-terminal FLAG-tagged glucokinase (12 to 465 residues) expressed in Escherichia coli DH10b using glucose as substrate after 60 mins in presence of ATP by kinase-glo luminescence assay relative to control
T2 sequence (whole entry): T1 sequence (P35557 whole entry)

[3] = molecular target: hERG (KCNH2) (Homo sapiens, UniProt Q12809); assay: Inhibition of human ERG at 10 uM
[4] = Hepatic extraction ratio in rat liver microsomes; type: ADME, microsome; details: read-out: ERH
[5] = Hepatic extraction ratio in human liver microsomes; type: ADME, microsome; details: read-out: ERH
[6] = system: Mus musculus; assay: Antidiabetic activity in ob/ob mouse assessed as reduction in glucose excursion at 30 mg/kg, po by oral glucose tolerance test; type: functional, organism-based
[7] = Hepatic extraction ratio in mouse liver microsomes; type: ADME, microsome; details: read-out: ERH
[8] = system: Mus musculus; assay: Antidiabetic activity in C57BL/6J mouse assessed as glucose lowering effect at 30 mg/kg, po; type: functional, organism-based
[9] = system: Rattus norvegicus; assay: Volume of distribution in orally dosed rat; type: ADME, organism-based; details: in vivo, po
[10] = Clearance in orally dosed rat; type: ADME, organism-based; details: in vivo, po
[11] = Oral bioavailability in rat; type: ADME, organism-based; details: in vivo
[12] = Half life in orally dosed rat; type: ADME, organism-based; details: in vivo, po
[13] = molecular target: T2, Hexokinase-4 (Homo sapiens); assay: Potency index, ratio of (S)-N-(5-chlorothiazol-2-yl)-2-(4-(cyclopropylsulfonyl)-6-methyl-2-oxopyridin-1(2H)-yl)-3-(tetrahydro-2H-pyran-4-yl)propanamide EC50 to compound EC50 for full length human C-terminal FLAG-tagged glucokinase (12 to 465 residues)
[14] = Plasma protein binding in human; type: ADME, cell-free; details: read-out: PPB (converted)

Chain of hERG (KCNH2) (Q12809 whole entry): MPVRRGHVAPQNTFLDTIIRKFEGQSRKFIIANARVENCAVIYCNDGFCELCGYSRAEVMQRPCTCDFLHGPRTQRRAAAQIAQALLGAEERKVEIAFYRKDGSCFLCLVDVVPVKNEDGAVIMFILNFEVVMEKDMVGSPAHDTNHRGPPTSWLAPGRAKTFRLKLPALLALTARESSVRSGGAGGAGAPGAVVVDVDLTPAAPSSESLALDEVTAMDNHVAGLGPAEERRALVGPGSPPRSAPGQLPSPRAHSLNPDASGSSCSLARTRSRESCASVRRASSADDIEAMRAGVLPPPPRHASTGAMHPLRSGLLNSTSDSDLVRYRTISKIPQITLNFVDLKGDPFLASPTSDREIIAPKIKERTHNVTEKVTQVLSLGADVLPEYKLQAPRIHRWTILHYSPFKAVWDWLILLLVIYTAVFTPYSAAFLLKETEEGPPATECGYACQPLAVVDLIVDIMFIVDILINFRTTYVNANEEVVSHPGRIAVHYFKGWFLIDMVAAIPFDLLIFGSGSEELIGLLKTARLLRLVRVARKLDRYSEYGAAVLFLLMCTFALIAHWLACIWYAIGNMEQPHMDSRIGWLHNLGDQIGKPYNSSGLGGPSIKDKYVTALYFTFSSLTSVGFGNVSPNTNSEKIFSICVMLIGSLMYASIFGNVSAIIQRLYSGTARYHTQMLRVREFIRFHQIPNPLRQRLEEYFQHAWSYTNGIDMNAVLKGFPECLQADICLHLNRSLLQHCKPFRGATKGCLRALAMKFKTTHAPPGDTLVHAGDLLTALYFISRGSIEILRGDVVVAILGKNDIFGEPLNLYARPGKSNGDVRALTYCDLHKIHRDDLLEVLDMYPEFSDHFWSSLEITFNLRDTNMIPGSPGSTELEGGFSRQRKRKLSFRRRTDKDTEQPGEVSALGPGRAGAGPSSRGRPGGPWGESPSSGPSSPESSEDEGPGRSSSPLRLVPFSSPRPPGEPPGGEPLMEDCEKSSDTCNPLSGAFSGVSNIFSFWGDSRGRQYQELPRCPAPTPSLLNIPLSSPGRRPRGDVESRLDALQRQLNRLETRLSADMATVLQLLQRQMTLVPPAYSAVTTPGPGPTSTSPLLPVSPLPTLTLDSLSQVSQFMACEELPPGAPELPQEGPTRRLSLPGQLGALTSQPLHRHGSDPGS

Row | SMILES | EC50 [1] [nM] | %max [2] [%] | inhibition at 10 µM [3] [%] | other results
1 | O=C(Nc1cnccn1)[C@H](CC1CCOCC1)n1ncc2c(S(=O)(=O)C3CC3)cccc21 | 790 | 95 | 45 | –
2 | O=C(Nc1ncc(Cl)s1)[C@H](CC1CCOCC1)n1cc(S(=O)(=O)C2CCCC2)cn1 | 1000 | 32 | – | –
3 | Cc1ccc(NC(=O)C(CC2CCOCC2)n2ncc3c(S(=O)(=O)C4CC4)cccc32)nn1 (racemic) | 7900 | 50 | 57 | –
4 | O=C(Nc1ncc(F)s1)[C@H](CC1CCCC1)n1cc(S(=O)(=O)C2CC2)cn1 | 630 | 73 | – | hepatic extraction ratio [4]: 0.85; hepatic extraction ratio [5]: 0.91
5 | O=C(Nc1ncc(Cl)s1)[C@H](CC1CCOCC1)n1ncc2cc(S(=O)(=O)C3CC3)ccc21 | 500 | 26 | – | –
6 | O=C(Nc1ncc(Cl)s1)[C@H](CC1CCOCC1)n1cc(S(=O)(=O)C2CC2)cn1 | 2000 | 35 | – | hepatic extraction ratio [4]: 0.31 to 0.39; hepatic extraction ratio [5]: 0.31 to 0.39
7 | Cc1cc(S(=O)(=O)C2CC2)cc(=O)n1[C@@H](CC1CCOCC1)C(=O)Nc1ncc(Cl)s1 | 1200 | 77 | – | Activity [6]: Active
8 | O=C(Nc1ncc(Cl)s1)[C@H](CC1CCCC1)n1cc(S(=O)(=O)C2CC2)cn1 | 630 | 88 | – | hepatic extraction ratio [4]: 0.85; hepatic extraction ratio [5]: 0.91
9 | CC(C)(C)S(=O)(=O)c1cnn(C(CC2CCOCC2)C(=O)Nc2ncc(F)s2)c1 (racemic) | > 100000 | 0 | – | –
10 | Cc1nnc(NC(=O)C(CC2CCOCC2)n2ncc3c(S(=O)(=O)C4CC4)cccc32)s1 (racemic) | 5000 | 74 | 23 | –
11 | O=C(Nc1ncc(F)s1)[C@H](CC1CCOCC1)n1ncc2c(S(=O)(=O)C3CC3)ccnc21 | 120 | 74 | 71 | –
12 | O=C(Nc1ccn(CCO)n1)C(CC1CCOCC1)n1ncc2c(S(=O)(=O)C3CC3)cccc21 (racemic) | 3100 | 73 | 12.5 | –
13 | Cn1ccc(NC(=O)C(CC2CCOCC2)n2ncc3c(S(=O)(=O)C4CC4)cccc32)n1 (racemic) | 1200 | 79 | 23 | –
14 | O=C(Nc1ncc(F)s1)C(CC1CCOCC1)n1cc(S(=O)(=O)c2cccc(Cl)c2)cn1 (racemic) | > 100000 | 0 | – | –
15 | O=C(Nc1ncc(Cl)s1)C(CC1CCOCC1)n1ncc2ccc(S(=O)(=O)C3CC3)cc21 (racemic) | > 100000 | 0 | – | –
16 | NC(=O)c1cnc(NC(=O)C(CC2CCOCC2)n2ncc3c(S(=O)(=O)C4CC4)cccc32)s1 (racemic) | 1600 | 49 | 26 | –
17 | O=C(Nc1ncc(F)s1)[C@H](CC1CCOCC1)n1cc(S(=O)(=O)C2CC2)cn1 | 4000 | 37 | – | hepatic extraction ratio [4]: 0.31 to 0.39; hepatic extraction ratio [5]: 0.31 to 0.39
18 | NC(=O)c1cccnc1NC(=O)C(CC1CCOCC1)n1ncc2c(S(=O)(=O)C3CC3)cccc21 (racemic) | 200 | 38 | 29 | –

The next lines start with results.

Row | EC50 [1] [nM] | %max [2] [%] | SMILES | inhibition at 10 µM [3] [%] | other results
19 | 40 | 83 | O=C(Nc1ncc(F)s1)[C@H](CC1CCOCC1)n1ncc2c(S(=O)(=O)C3CC3)cccc21 | 84 | –
20 | 120 | 91 | O=C(Nc1ncc(F)s1)[C@H](CC1CCOCC1)n1ncc2c(S(=O)(=O)C3CC3)cc(F)cc21 | 77 | –
21 | 100 | 74 | N#Cc1cc(S(=O)(=O)C2CC2)c2cnn(C(CC3CCOCC3)C(=O)Nc3ncc(F)s3)c2c1 (racemic) | 83 | –
22 | 80 | 71 | O=C(Nc1ncc(F)s1)[C@H](CC1CCOCC1)n1ncc2c(S(=O)(=O)C3CC3)cncc21 | 46 | hepatic extraction ratio [7]: 0.56; Activity [8]: Active; Activity [6]: Active; Vd [9]: 1.9 L/kg; CL/F [10]: 29 mL/min/kg; hepatic extraction ratio [4]: 0.33; bioavailability [11]: 51%; hepatic extraction ratio [5]: 0.59; half-life [12]: 258 min
23 | 31 | 65 | O=C(Nc1ncc(Cl)s1)[C@H](CC1CCOCC1)n1ncc2c(S(=O)(=O)C3CC3)cccc21 | 85 to 93 | Ratio EC50 [13]: 40; hepatic extraction ratio [5]: 0.67; fraction unbound [14]: 0.0004
24 | 100 | 96 | O=C(Nc1ncc(F)s1)[C@H](CC1CCOCC1)n1ncc2c(S(=O)(=O)C3CC3)cc(O)cc21 | – | –
25 | 100 | 97 | NC(=O)c1cc(S(=O)(=O)C2CC2)c2cnn([C@@H](CC3CCOCC3)C(=O)Nc3ncc(F)s3)c2c1 | – | –
26 | 100 | 100 | COc1cc(S(=O)(=O)C2CC2)c2cnn([C@@H](CC3CCOCC3)C(=O)Nc3ncc(F)s3)c2c1 | 78 | –
